Laboratory results from patent US10226464B2, “Small molecule NF-κB inhibitors” (ImmuneTarget, Inc., priority 2015, dated 2019).

Tests used:
c-Rel protein = c-Rel protein (Homo sapiens (Human), UniProt Q04864); experiment: Electrophoretic Mobility Shift Assay (EMSA), Rel/NF-κB DNA binding inhibition; details: 10 nM c-Rel protein, phosphor-labeled CD28RE oligonucleotide
Method: Electrophoretic Mobility Shift Assay (EMSA)
DNA binding reaction (20 μL) was carried out in 1×DNA Binding Buffer (10 mM Tris, 40 mM NaCl, 1 mM EDTA, 4% glycerol) with 10 nM c-Rel protein and 0.5 ng phosphor-labeled CD28RE oligonucleotide for 10 minutes at room temperature in 96-well plates. Test compounds, in serial dilutions, were added into each well, and further incubated for 15 minutes before loading onto native 5% polyacrylamide gel. Electrophoresis proceeded for 2.5 hours at 160V. Radioactive signals were quantified using Phospho-Imager. IC50 of compounds of example 1 to 75 were determined by quantifying the intensity of Rel/NF-κB inhibition in EMSA using phospho-imager. An example of EMSA data of the present invention is shown for compound 6 in FIG. 2.

NF-κB = NF-κB GFP Assay (NFκB/Jurkat/GFP transcriptional reporter cell line); format: cell-based; details: Homo sapiens; NF-κB/Jurkat/GFP reporter cells, TNF-α 5 ng/ml, 24 hours; read-out: NF-KB GFP IC50
Method: NFκB/Jurkat/GFP transcriptional reporter cell line was obtained from SBI System Biosciences. NF-κB/Jurkat/GFP™ Reporter cells (5×10^5 cells) were plated at a concentration of 1 million cells/ml into each well of a 24-well plate. TNF-α (5 ng/ml) was added. Compounds were added via serial dilutions to corresponding wells. After 24 hours, 100 μl of the cells were transferred to a well of a Costar® UV plate (96 well, No lid, w/ UV Transparent Flat Bottom, Corning, N.Y., Cat#3635) and the intensity of GFP fluorescence was measured (Excitation 485+/−20, Emission 528+/−20) in a Synergy™ HT Multi-Detection Microplate Reader (BioTech, Winooski, Vt.). The intensities of GFP measured were plotted against the […].

c-Rel protein, sequence (Q04864 whole entry): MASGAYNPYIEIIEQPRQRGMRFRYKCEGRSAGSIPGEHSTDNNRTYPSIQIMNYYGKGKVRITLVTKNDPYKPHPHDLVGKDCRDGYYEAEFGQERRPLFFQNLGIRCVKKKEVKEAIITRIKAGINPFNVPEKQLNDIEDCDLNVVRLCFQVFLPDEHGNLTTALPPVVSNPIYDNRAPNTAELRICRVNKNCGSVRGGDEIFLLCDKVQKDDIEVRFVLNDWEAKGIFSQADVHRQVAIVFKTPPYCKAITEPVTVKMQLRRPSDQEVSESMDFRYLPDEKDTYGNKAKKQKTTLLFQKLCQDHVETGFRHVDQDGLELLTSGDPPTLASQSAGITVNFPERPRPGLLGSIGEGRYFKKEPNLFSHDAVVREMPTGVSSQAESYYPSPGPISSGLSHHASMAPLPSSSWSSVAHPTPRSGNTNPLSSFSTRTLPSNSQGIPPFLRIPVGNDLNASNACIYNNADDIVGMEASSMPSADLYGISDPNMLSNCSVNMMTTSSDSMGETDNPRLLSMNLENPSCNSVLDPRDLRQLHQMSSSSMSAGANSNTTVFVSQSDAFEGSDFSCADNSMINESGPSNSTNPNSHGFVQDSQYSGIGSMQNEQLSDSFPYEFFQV

Compound | IC50 (c-Rel protein) [nM] | IC50 (NF-κB) [µM]
CCCCCCCOc1ccc2cc3c(=O)[nH]c(=O)nc-3oc2c1F [Compound 52] | < 500 | < 5
O=C(O)CCCCCOc1ccc2cc3c(=O)[nH]c(=O)nc-3oc2c1Cl [Compound 53, 6-((9-chloro-2,4-dioxo-3,4-dihydro-2H-chromeno[2,3-d]pyrimidin-8-yl)oxy)hexanoic acid] | < 5000 | < 20
O=C(O)CCCOc1ccc2cc3c(=O)[nH]c(=O)nc-3oc2c1Cl [Compound 55] | < 5000 | < 20
O=C(O)COc1ccc2cc3c(=O)[nH]c(=O)nc-3oc2c1Cl [Compound 56] | < 5000 | < 20
COC(=O)CCCCOc1ccc2cc3c(=O)[nH]c(=O)nc-3oc2c1Cl [Compound 57] | < 5000 | < 20
CC(=O)OCCCCCCOc1ccc2cc3c(=O)[nH]c(=O)nc-3oc2c1Cl [Compound 58] | < 5000 | < 20
CC(=O)OCCCOc1ccc2cc3c(=O)[nH]c(=O)nc-3oc2c1Cl [Compound 59] | < 5000 | < 20
CC(=O)OCCCCOc1ccc2cc3c(=O)[nH]c(=O)nc-3oc2c1Cl [Compound 60, 4-((9-chloro-2,4-dioxo-3,4-dihydro-2H-chromeno[2,3-d]pyrimidin-8-yl)oxy)butyl acetate] | < 5000 | < 20
COCCOCCOc1ccc2cc3c(=O)[nH]c(=O)nc-3oc2c1 [Compound 61, 8-(2-(2-methoxyethoxy)ethoxy)-2H-chromeno[2,3-d]pyrimidine-2,4(3H)-dione] | < 1000 | < 5
COCCOCCOc1ccc2cc3c(=O)[nH]c(=O)nc-3oc2c1Cl [Compound 62] | < 1000 | < 5
COCCOCCOc1ccc2cc3c(=O)[nH]c(=O)nc-3oc2c1F [Compound 63] | < 1000 | < 5
COCCOCCOc1cc2oc3nc(=O)[nH]c(=O)c-3cc2cc1Cl [Compound 64] | < 1000 | < 5
COCCOCCOc1cc2oc3nc(=O)[nH]c(=O)c-3cc2cc1F [Compound 65] | < 1000 | < 5
COCCCCOc1ccc2cc3c(=O)[nH]c(=O)nc-3oc2c1Cl [Compound 66, 9-chloro-8-(4-methoxybutoxy)-2H-chromeno[2,3-d]pyrimidine-2,4(3H)-dione] | < 1000 | < 5
COCCCCOc1ccc2cc3c(=O)[nH]c(=O)nc-3oc2c1 [Compound 67] | < 1000 | < 5
COCCCCOc1ccc2cc3c(=O)[nH]c(=O)nc-3oc2c1F [Compound 68] | < 1000 | < 5
COCCCCOc1cc2oc3nc(=O)[nH]c(=O)c-3cc2cc1Cl [Compound 69] | < 1000 | < 5
COCCCCOc1cc2oc3nc(=O)[nH]c(=O)c-3cc2cc1F [Compound 70] | < 1000 | < 5
COCCOCCCOc1ccc2cc3c(=O)[nH]c(=O)nc-3oc2c1 [Compound 71] | < 1000 | < 5
COCCOCCCOc1ccc2cc3c(=O)[nH]c(=O)nc-3oc2c1Cl [Compound 72] | < 1000 | < 5
COCCOCCCOc1ccc2cc3c(=O)[nH]c(=O)nc-3oc2c1F [Compound 73] | < 1000 | < 5
COCCOCCCOc1cc2oc3nc(=O)[nH]c(=O)c-3cc2cc1Cl [Compound 74] | < 1000 | < 5
COCCOCCCOc1cc2oc3nc(=O)[nH]c(=O)c-3cc2cc1F [Compound 75, 7-fluoro-8-(3-(2-methoxyethoxy)propoxy)-2H-chromeno[2,3-d]pyrimidine-2,4(3H)-dione] | < 1000 | < 5
